US6417010B1, “Methods and apparatus for synthesizing labeled combinatorial chemistry libraries” (Discovery Partners International, priority 1993, dated 2002)

System: Monoclonal antibody 3E7
Assay: Magnetic selection of peptide-bearing ELAMS by microbead-conjugated 3E7 antibody
Assay type: binding
Conditions: PBS, 16 hour incubation at 4° C., high strength magnet
Description: After a 16 hour incubation at 4° C., beads which bind the 3E7 antibody can be selected using a high strength magnet. The identifier information of the selected beads is then analyzed with a model DAS-4001EM or DAS-4001 detector (Bio Medic Data Systems).

For Tyr-Gly-Gly-L-Phe-L-Leu [YGGFL], the “selection of ELAMS by the 3E7 antibody” value was “selected by the 3E7 antibody”.
